The source of these data is patent US20090149427A1, “PHARMACEUTICALLY ACCEPTABLE SALTS AND HYDRATES OF RISEDRONIC ACID” (Pliva Hrvatska d.o.o., priority 2005, published 2009).

Each structure is given as a SMILES string.

For this data set the following is noted: humidity range 0-90% RH at 25° C., over a time period of 1200 minutes, FIG. 7. How it is done: FIG. 7: Izotherm diagram for tri-sodium risedronate dihydrate showing the sorption and desorption isotherm for tri-sodium risedronate dihydrate measured in a humidity range from 0-90% RH at 25° C. at DVS 1 (Surface Measurement System).

Turning to `O.O.O=P([O-])([O-])C(O)(Cc1cccnc1)P(=O)([O-])O.[Na+].[Na+].[Na+]` [tri-sodium risedronate dihydrate], the “hygroscopicity (water absorption when humidity is raised)” value is “absorbs a minimum quantity of water”.
